We go through 13 compounds from patent US20260355196A1, “INHIBITORS AND DEGRADERS OF PIP4K PROTEIN” (Larkspur Biosciences, Inc., priority 2023, published 2026).

Molecules are shown by their SMILES.

The assay deals with T1, PIP4K2C (Homo sapiens, UniProt Q8TBX8).
T1 sequence (Q8TBX8 1-421): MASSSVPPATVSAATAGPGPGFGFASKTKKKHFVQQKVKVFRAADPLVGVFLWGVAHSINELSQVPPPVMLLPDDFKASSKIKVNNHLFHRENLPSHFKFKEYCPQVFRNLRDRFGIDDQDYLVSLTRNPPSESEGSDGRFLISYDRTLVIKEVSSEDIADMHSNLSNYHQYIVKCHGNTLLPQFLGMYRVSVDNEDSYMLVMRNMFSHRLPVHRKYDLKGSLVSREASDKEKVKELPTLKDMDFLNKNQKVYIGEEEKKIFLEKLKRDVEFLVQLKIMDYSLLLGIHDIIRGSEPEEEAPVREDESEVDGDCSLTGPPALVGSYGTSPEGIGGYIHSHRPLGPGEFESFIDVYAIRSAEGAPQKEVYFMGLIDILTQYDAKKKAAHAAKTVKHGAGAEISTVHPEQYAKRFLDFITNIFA
Description: Enzyme Binding Assay (KINOMEscan): active site-directed competition binding to an immobilized ligand. Set-up: purchased Eurofins DiscoverX, San Diego, CA 87-0007-1094. The note with it: 11-point dose response, duplicate, top concentration 5 micromolar; read-out: Pip4k2c Kd: IC50. In outline: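 Active site-directed competition binding against an immobilized ligand. 11-point dose-response in duplicate, top concentration 5 micromolar; IC50 from a Hill equation fitted by the Levenberg-Marquardt algorithm.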
`CC(=O)N[C@H]1CC[C@H](Nc2ncc(F)c(-c3cccc(C4COC4)c3)n2)CC1` [Compound 175, N-(trans-4-((5-fluoro-4-(3-(oxetan-3-yl)phenyl)pyrimidin-2-yl)amino)cyclohexyl)acetamide]: the IC50 (commonly the concentration that gives 50% inhibition) is less than 500 nM.
For `CC(=O)N[C@H]1CC[C@H](Nc2ncc(F)c(-c3cccc(C4(O)COC4)c3)n2)CC1` [Compound 176, N-(trans-4-((5-fluoro-4-(3-(3-hydroxyoxetan-3-yl)phenyl)pyrimidin-2-yl)amino)cyclohexyl)acetamide], the IC50 is less than 500 nM.
For the compound `CC(=O)N1CCC(Nc2ncc(F)c(-c3cccc(C4CCCN(C(C)=O)C4)c3)n2)CC1` (stereo not shown) [Compound 179, 1-(4-((4-(3-(1-acetylpiperidin-3-yl)phenyl)-5-fluoropyrimidin-2-yl)amino)piperidin-1-yl)ethan-1-one], the half-maximal inhibitory concentration (IC50) is less than 500 nM.
For `NC(=O)[C@H]1CC[C@H](Nc2ncc(F)c(-c3cccc(C4COC4)c3)n2)CC1` [Compound 180, trans-4-((5-fluoro-4-(3-(oxetan-3-yl)phenyl)pyrimidin-2-yl)amino)cyclohexane-1-carboxamide], the IC50 was less than 500 nM.
Then `NC(=O)[C@H]1CC[C@H](Nc2ncc(F)c(-c3cccc(C4(O)COC4)c3)n2)CC1` [Compound 181, trans-4-((5-fluoro-4-(3-(3-hydroxyoxetan-3-yl)phenyl)pyrimidin-2-yl)amino)cyclohexane-1-carboxamide], with less than 500 nM; and `CC(=O)N[C@H]1CC[C@H](Nc2ncc(F)c(N3CCOCC3)n2)CC1` [Compound 182, trans-N-(4-((5-fluoro-4-morpholinopyrimidin-2-yl)amino)cyclohexyl)acetamide], with 1000 to 5000 nM.
To `CC(=O)N1CCC(Nc2ncc(F)c(-c3cccc(-c4cc[nH]c(=O)c4)c3)n2)CC1` [Compound 187, 4-(3-(2-((1-acetylpiperidin-4-yl)amino)-5-fluoropyrimidin-4-yl)phenyl)pyridin-2(1H)-one] belongs less than 500 nM; to `CC(=O)N[C@H]1CC[C@H](Nc2ncc(F)c(-c3cccc(-c4cc[nH]c(=O)c4)c3)n2)CC1` [Compound 188, trans-N-(4-((5-fluoro-4-(3-(2-oxo-1,2-dihydropyridin-4-yl)phenyl)pyrimidin-2-yl)amino)cyclohexyl)acetamide], less than 500 nM.
To `CC(=O)N1CCC(Nc2ncc(F)c(N3CCCC(n4ccccc4=O)C3)n2)CC1` (stereo not shown) [Compound 189, 1-(1-(2-((1-acetylpiperidin-4-yl)amino)-5-fluoropyrimidin-4-yl)piperidin-3-yl)pyridin-2(1H)-one] belongs 1000 to 5000 nM.
For the compound `CC(=O)N[C@H]1CC[C@H](Nc2ncc(Cl)c(-c3cc(C4CC4)[nH]n3)n2)CC1` [Compound 190, trans-N-((1r,4r)-4-((5-chloro-4-(5-cyclopropyl-1H-pyrazol-3-yl)pyrimidin-2-yl)amino)cyclohexyl)acetamide], the half-maximal inhibitory concentration (IC50) was less than 500 nM.
With `CNC(=O)[C@H]1CC[C@@H](Nc2ncc(Cl)c(-c3cc(C4CC4)[nH]n3)n2)CC1` [Compound 191, cis-(1s,4s)-4-((5-chloro-4-(5-cyclopropyl-1H-pyrazol-3-yl)pyrimidin-2-yl)amino)-N-methylcyclohexane-1-carboxamide], the concentration for half-maximal inhibition (IC50) was less than 500 nM.
To `CC(=O)N1CCC[C@H](Nc2ncc(Cl)c(-c3cc(C4CC4)[nH]n3)n2)C1` [Compound 192, (S)-1-(3-((5-chloro-4-(5-cyclopropyl-1H-pyrazol-3-yl)pyrimidin-2-yl)amino)piperidin-1-yl)ethan-1-one] belongs less than 500 nM; to `CNC(=O)[C@H]1C[C@@H](Nc2ncc(Cl)c(-c3cnn(-c4ccc[nH]c4=O)c3)n2)C1` [Compound 193, cis-3-((5-chloro-4-(1-(2-oxo-1,2-dihydropyridin-3-yl)-1H-pyrazol-4-yl)pyrimidin-2-yl)amino)-N-methylcyclobutane-1-carboxamide], less than 500 nM.
